According to patent US11319305B2, “Pyrimidine sulfamide derivative and preparation method and medical application thereof” (SHIJIAZHUANG SAGACITY NEW DRUG DEVELOPMENT CO., LTD., priority 2017, dated 2022):

Columns and labels:
[1] = system: human liver microsomal cytochrome P450 isozyme (CYP1A2, CYP2C9, CYP2C19, CYP2D6 and CYP3A4); test: Human liver microsomal cytochrome P450 isozyme inhibition assay, summary over the main isozymes; format: in vitro ADME; conditions: human liver microsomes
Experimental: (§1) Experimental Embodiment 4: Human Liver Microsomal Cytochrome P450 Isozyme Inhibition Assay The purpose of the assay was to evaluate the inhibitory activity of the samples against human liver microsomal cytochrome P450 isozyme (CYP1A2, CYP2C9, CYP2C19, CYP2D6 and CYP3A4) using the 5-in-1 probe substrate of the CYP isozyme. Mixed human liver microsomes (HLM) were purchased from Corning Inc. (Steuben, N.Y., USA) and stored below −80° C. before use. The test compound working solution which has been diluted into serial concentrations was added to an incubation system containing human liver microsomes, probe substrates and circulating system cofactors, and a control containing solvent without the test compound was used as the enzyme activity control (100%). The concentration of the metabolite produced by the probe substrate in the sample was determined using a liquid chromatography-tandem mass spectrometry (LC-MS/MS) method. Nonlinear regression analysis was performed on the average percent activity versus concentration of subjects using SigmaPlot (V.11). The IC50 value was calculated by a three-parameter or four-parameter inverse-logarithmic equation.

[2] = target: T1, CYP2D6 (Homo sapiens, UniProt P10635); test: Human liver microsomal cytochrome P450 isozyme inhibition assay, CYP2D6; format: in vitro ADME; conditions: human liver microsomes
T1 construct: Mixed human liver microsomes (HLM) were purchased from Corning Inc; tissue Corning Inc; host or cells: pooled human liver microsomes
Experimental: as §1

[3] = target: T2, CYP1A2 (Homo sapiens, UniProt P05177); test: Human liver microsomal cytochrome P450 isozyme inhibition assay, CYP1A2; format: in vitro ADME; conditions: human liver microsomes
T2 construct: Mixed human liver microsomes (HLM) were purchased from Corning Inc; tissue Corning Inc; host or cells: pooled human liver microsomes
T2 sequence (P05177 1-516): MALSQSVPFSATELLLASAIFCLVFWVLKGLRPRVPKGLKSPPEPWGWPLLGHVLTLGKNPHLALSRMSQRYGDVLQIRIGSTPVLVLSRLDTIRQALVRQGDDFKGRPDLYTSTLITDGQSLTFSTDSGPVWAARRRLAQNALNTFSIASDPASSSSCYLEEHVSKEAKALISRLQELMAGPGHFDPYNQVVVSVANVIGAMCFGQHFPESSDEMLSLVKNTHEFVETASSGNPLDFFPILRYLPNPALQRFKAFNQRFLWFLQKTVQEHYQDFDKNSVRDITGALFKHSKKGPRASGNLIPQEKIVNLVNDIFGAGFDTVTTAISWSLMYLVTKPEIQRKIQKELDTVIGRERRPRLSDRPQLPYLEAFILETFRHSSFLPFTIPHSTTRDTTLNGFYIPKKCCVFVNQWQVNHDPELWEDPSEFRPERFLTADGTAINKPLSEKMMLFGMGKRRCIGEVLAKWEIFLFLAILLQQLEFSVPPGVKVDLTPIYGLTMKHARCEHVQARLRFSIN
Experimental: as §1

[4] = target: T3, CYP3A4 (Homo sapiens, UniProt P08684); test: Human liver microsomal cytochrome P450 isozyme inhibition assay, CYP3A4; format: in vitro ADME; conditions: human liver microsomes
T3 construct: Mixed human liver microsomes (HLM) were purchased from Corning Inc; tissue Corning Inc; host or cells: pooled human liver microsomes
Experimental: as §1

[5] = target: T4, Human Pregnane X Receptor (PXR) (Homo sapiens, UniProt O75469); test: Human pregnane X receptor (PXR) assay, induction of PXR-mediated CYP3A expression in DPX2 cells; format: cell-based
T4 construct: host or cells: DPX2 cells
T4 sequence (O75469 1-434): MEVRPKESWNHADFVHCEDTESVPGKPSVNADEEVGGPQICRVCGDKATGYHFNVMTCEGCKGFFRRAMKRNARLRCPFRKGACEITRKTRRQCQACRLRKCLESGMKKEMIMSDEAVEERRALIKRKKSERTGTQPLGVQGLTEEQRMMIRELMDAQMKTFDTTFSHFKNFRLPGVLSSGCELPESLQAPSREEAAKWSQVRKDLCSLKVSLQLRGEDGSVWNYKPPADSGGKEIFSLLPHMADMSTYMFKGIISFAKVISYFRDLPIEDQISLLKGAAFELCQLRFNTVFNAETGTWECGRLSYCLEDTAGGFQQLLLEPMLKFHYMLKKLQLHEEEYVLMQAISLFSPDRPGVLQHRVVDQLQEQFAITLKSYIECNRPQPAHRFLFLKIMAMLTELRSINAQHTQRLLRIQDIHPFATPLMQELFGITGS
Experimental: Experimental Embodiment 3: Human Pregnane X Receptor (PXR) Assay
The effect of the compounds on the induction of PXR-mediated CYP3A expression was evaluated.
1. DPX2 cells were thawn under sterile conditions.
2. DPX2 cell solution was distributed in 96-well plate (100 μL/well), and the plate was placed in a 5% CO2/37° C. incubator overnight.
3. Quantitative feeding medium was thawn in a 37° C. water bath. Positive control rifampin was thawn at room temperature. A series of test compounds and positive control dilutions were prepared in quantitative feeding medium. The cells were carefully aspirated from each wells without disturbing the cells during aspiration and the medium was discarded. 100 μL of each test compound concentration was transferred to pre-labeled wells. The operation of the positive control group and the blank group were the same. The plate was placed back into the incubator for 24 hours exposure.
(1) 7 μL of Luciferin-IPA was added to […] feeding medium, the mixture was mixed by inverting, and poured into a Luciferin-IPA reagent tank.
(2) The 96-well plate was taken out from the incubator, and the media was carefully aspirated from each wells. 50 μL of the Luciferin-IPA reagent was added to each wells, and the cell plate was placed back into the incubator for 60 minutes.
(3) During incubation, the P450-Glo buffer was poured into the Luciferin detection reagent, and the mixture was mixed by inverting.
(4) The 96-well plate was taken out from the incubator, and 40 μL of solution from each well was transferred into the corresponding white 96-well plate, and the corresponding position of each wells was consistent with the original cell plate. […]
(8) After incubation with Luciferin detection reagent for 20 minutes, a photometer (set 1-5 seconds. Readout Time) was used to measure the luminescence of each wells of the white 96-well plate. […]
(10) After incubating for 60 minutes at 37° C., the original 96-well plate was taken out of the incubator. The reader was set to the fluorescence mode, the excitation wavelength was set to 380-400 nm, the emission wavelength was set to 505 nm, and the fluorescence intensity of each wells was measured.
(11) The cell plate was taken out of the enzyme reader, and 100 μL of ONE-Glo™ detection reagent was added to each wells. […]
(12) The enzyme reader was set to 5 seconds for pre-shaking and 5 seconds for wells reading, and the fluorescence intensity in each hole was measured. […]
The positive control was rifampicin, six concentrations were tested in each experiment. The data was analyzed using Prism to generate a concentration-response curve and the EC50 value of the compound was calculated.

[6] = target: T5, CYP2C9 (Homo sapiens, UniProt P11712); test: Human liver microsomal cytochrome P450 isozyme inhibition assay, CYP2C9; format: in vitro ADME; conditions: human liver microsomes
T5 construct: Mixed human liver microsomes (HLM) were purchased from Corning Inc; tissue Corning Inc; host or cells: pooled human liver microsomes
Experimental: as §1

[7] = target: T6, bile salt transport pump (BSEP) (Homo sapiens, UniProt O95342); test: Inhibition test on bile salt transfer pump (BSEP), taurocholic acid uptake in BSEP-Hi5-VT vesicles; format: in vitro ADME
T6 construct: purchased Solvo Biotechnology SB-BSEP-Hi5-VT; host or cells: Hi5 insect cells (read from the product name; own knowledge)
Experimental: Prepared with buffer A, 8.16 mM ATP and 4.08 μM taurocholic acid were contained in 12 mL buffer A.
Prepared with buffer A, 8.16 mM AMP, 4.08 μM taurocholic acid 12 mL buffer A were contained in buffer A.
A solution containing BSEP-Hi5-VT 5 μg/μL was prepared with buffer A.
The compound was diluted to 100 mM with DMSO; then serially diluted 3-fold for an 11-point dilution; the minimum concentration was 0.169 μM.
Positive reference Glyburide was diluted to 20 mM with DMSO; then serially diluted 2-fold for an 11-point dilution; the minimum concentration was 19.5
0.3 μL of a solution of the compound in DMSO or a diluted DMSO solution were transferred into corresponding wells of the compound plate using ECHO, respectively.
14.7 μL of ATP buffer was added to the compound and the corresponding wells of zero percent effect (ZPE), respectively.
14.7 μL of AMP buffer was added to the corresponding wells of 100% effect (HPE), respectively.
The plate was shaked for 10 minutes at 25° C.
15 μL of BSEP-H15-VT Vesicle solution was added to all wells, respectively, and the plate was shaked for another 40 minutes at 25° C.
6.5 μL 0.5 M ethylenediaminetetraacetic acid (EDTA) solution was added to all wells immediately, followed by addition of 65 μL of buffer B, and the whole reaction was completed.
7.95 μL of liquid was transferred to the filter plate from the compound plate at the end of the reaction using an instrument.
After placing the liquid receiving plate under the filter plate, the liquid was removed using a centrifuge and the receiving plate liquid was discarded.
9.90 μL of buffer B was added to the filter plate. After placing the liquid receiving plate under the filter plate, the liquid was removed using a centrifuge, and the receiving plate liquid was discarded, and filter plate was washed for three times in total.
The filter plate was dried overnight.
On the next day, 80 μL of methanol/water (80/20, volume ratio) solution was added to the filter plate.
The plate was shaked for 15 minutes after the filter plate was attached to the membrane.
A new liquid receiving plate was placed under the filter plate, and the filter plate was centrifuged for 5 minutes, and all liquids in the filter plate were filtrated into the receiving plate.
15 μL of internal standard solution was added to each wells in the liquid receiving plate, and the plate was sealed with a membrane.
The content of taurocholic acid in the receiving plate was detected using LC/MS/MS.
Several concentrations were tested in each experiments. The data were analyzed using Prism to generate a concentration-response curve, and IC50 values of the compounds were calculated.

[8] = target: T7, CYP2C19 (Homo sapiens, UniProt P33261); test: Human liver microsomal cytochrome P450 isozyme inhibition assay, CYP2C19; format: in vitro ADME; conditions: human liver microsomes
T7 construct: Mixed human liver microsomes (HLM) were purchased from Corning Inc; tissue Corning Inc; host or cells: pooled human liver microsomes
Experimental: as §1

T5 sequence (P11712 whole entry): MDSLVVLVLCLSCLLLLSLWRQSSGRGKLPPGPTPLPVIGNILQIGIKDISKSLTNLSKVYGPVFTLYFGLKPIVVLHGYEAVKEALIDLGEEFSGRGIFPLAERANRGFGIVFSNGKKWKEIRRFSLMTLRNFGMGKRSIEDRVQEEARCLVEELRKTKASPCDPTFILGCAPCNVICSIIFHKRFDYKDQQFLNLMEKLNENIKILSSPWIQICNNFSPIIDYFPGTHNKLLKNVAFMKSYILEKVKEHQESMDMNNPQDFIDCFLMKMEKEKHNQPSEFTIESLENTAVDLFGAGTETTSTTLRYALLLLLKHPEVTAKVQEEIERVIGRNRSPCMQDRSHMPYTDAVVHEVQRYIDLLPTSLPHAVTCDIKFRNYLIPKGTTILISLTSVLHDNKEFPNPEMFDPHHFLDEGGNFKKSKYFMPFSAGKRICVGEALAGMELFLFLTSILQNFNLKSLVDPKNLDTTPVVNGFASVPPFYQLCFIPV
T6 sequence (O95342 whole entry): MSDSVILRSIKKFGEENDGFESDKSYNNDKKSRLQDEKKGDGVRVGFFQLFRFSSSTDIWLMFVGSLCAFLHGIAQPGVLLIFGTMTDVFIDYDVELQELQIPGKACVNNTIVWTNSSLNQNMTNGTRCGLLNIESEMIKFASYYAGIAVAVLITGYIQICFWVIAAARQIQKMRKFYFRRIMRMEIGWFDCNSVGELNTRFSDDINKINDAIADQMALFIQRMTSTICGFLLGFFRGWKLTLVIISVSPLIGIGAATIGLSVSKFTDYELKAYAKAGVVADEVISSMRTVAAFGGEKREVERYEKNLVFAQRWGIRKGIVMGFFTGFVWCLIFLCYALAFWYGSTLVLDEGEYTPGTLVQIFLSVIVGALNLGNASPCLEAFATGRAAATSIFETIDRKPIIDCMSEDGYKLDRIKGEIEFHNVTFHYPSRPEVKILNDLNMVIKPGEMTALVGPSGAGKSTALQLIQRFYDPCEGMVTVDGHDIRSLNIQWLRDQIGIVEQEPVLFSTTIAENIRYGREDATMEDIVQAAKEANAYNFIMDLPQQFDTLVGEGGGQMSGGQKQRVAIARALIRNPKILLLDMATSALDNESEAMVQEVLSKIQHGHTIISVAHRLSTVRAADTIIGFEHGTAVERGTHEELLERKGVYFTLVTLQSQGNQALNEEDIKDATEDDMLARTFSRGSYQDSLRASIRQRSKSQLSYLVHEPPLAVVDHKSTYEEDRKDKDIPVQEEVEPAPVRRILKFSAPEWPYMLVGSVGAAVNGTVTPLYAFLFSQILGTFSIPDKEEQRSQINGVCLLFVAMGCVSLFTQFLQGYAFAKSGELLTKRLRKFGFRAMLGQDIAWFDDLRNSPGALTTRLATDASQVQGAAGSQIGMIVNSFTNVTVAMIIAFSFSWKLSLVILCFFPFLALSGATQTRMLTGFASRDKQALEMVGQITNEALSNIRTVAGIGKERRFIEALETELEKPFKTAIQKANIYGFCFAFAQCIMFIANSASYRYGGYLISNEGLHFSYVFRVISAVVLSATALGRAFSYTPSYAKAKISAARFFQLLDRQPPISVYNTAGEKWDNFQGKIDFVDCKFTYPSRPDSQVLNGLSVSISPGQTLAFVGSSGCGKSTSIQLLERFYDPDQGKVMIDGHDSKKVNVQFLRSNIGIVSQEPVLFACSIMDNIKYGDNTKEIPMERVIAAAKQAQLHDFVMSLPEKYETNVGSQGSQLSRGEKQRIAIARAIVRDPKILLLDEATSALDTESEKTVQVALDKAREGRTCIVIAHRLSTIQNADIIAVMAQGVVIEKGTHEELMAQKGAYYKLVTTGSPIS
T7 sequence (P33261 whole entry): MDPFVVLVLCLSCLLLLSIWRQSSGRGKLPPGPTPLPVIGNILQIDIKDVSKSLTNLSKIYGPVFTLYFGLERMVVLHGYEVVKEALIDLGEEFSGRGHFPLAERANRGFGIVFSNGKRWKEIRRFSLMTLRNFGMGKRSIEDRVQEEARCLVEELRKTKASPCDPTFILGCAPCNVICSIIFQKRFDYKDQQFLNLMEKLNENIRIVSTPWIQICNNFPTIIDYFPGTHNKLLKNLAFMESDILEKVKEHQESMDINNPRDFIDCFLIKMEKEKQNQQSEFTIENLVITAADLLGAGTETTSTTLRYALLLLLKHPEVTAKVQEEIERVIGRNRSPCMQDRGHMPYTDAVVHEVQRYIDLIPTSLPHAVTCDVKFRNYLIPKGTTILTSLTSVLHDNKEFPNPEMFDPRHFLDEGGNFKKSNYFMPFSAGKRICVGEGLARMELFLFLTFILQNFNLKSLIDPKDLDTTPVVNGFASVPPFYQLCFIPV
T1 sequence (P10635 whole entry): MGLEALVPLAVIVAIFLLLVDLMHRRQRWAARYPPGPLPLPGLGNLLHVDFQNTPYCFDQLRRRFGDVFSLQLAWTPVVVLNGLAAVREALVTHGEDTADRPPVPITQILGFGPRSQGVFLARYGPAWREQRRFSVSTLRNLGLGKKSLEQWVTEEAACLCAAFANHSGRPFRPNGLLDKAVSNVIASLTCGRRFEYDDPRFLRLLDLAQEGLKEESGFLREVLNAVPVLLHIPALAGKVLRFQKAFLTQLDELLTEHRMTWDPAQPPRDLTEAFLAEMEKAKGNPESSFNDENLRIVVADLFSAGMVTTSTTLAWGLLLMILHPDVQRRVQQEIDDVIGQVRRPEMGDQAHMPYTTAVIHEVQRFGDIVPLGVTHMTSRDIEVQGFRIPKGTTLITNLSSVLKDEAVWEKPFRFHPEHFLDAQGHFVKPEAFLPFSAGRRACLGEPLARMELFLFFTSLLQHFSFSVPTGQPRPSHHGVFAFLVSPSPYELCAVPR
T3 sequence (P08684 whole entry): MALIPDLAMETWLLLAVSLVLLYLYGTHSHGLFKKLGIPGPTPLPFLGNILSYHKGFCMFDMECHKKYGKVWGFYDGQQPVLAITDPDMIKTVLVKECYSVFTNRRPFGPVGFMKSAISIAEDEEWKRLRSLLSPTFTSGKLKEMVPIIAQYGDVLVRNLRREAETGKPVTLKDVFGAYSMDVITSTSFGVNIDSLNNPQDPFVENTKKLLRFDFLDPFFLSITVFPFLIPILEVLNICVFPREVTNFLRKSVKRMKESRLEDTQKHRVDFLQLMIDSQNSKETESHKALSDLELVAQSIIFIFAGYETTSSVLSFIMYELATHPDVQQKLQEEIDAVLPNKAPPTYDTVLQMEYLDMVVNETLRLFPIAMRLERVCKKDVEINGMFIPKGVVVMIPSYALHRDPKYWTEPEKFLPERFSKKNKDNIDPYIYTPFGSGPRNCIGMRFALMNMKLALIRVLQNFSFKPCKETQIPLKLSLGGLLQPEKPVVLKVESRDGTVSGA

inhibitory effects on four main isozymes of CYP (in words) [1]: weak | IC50 [2]: > 50 µM | IC50 [3]: 37 µM | IC50 [4]: 23 µM | induction effect on PXR-mediated CYP3A expression (in words) [5]: relatively strong induction effect | EC50 ([5]; DPX2 cells, 24 hours exposure, ± is calculation error of simulation curve, read-out: EC50, induction effect on PXR-mediated CYP3A expression): 6.34 ± 0.17 µM | IC50 [6]: 7.5 µM | inhibitory effects on the isozymes CYP2C9 (in words) [6]: moderate | IC50 [8]: 31 µM
Structure (SMILES): CCCNS(=O)(=O)Nc1ncnc(OCCOc2ncc(Br)cn2)c1-c1ccc(Br)cc1 [macitentan, reference compound]
inhibitory effect on the bile salt transport pump (BSEP) (in words) [7]: strong | IC50 ([7]; substrate taurocholic acid, read-out: IC50, inhibitory effect on the bile salt transport pump (BSEP)): 0.281 µM
